{"source": "patent US11253524B2", "about": "(Gilead Sciences, Inc., priority 2018, dated 2022)", "key": {"OATP2B1": {"target": "T1, OATP2B1 (Homo sapiens, UniProt O94956)", "T1 construct": "expressed in transfected cells; host or cells: MDCKII cells", "T1 sequence (O94956 1-709)": "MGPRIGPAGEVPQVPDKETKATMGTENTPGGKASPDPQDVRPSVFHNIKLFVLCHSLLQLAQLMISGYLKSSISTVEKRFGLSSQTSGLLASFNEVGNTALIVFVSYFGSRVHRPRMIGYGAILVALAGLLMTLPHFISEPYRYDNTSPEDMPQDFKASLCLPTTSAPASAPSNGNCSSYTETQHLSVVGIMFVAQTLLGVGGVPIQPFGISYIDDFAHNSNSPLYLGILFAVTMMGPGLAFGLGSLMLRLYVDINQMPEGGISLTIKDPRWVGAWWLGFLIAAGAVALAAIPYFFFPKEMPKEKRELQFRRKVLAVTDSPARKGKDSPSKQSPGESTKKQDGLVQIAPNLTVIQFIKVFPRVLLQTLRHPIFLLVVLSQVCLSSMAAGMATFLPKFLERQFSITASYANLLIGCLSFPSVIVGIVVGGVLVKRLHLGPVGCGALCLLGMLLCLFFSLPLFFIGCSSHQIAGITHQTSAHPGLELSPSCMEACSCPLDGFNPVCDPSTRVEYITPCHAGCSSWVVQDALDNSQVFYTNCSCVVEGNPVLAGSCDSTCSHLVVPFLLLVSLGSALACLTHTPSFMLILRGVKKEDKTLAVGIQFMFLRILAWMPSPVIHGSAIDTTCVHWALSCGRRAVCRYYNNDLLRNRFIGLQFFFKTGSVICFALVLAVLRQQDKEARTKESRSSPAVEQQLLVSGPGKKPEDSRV", "experiment": "OATP2B1 inhibition assay, 3H-E3S uptake, MDCKII cells", "type": "cell-based", "protocol": "MDCKII-Mock and OATP2B1-transfected cells (1×10^5 cells each) were seeded 24 hr prior to assay. Pre-rinsed cells were incubated for 2 minutes with 0.2 μM ^3H-E3S in HK buffer in the presence of various concentrations of test compound or positive control fluvastatin. After the experiment cells were rinsed with Krebs-Henseleit buffer and lysed with 0.1 M NaOH. The amount of substrate inside the cells was determined by liquid scintillation reader.\n(§1) Percent inhibition was calculated according to the following equation: % inhibition=[1−{[OATP]i−[WT]ni}/{[OATP]ni−[WT]ni}]*100 where: [OATP]i represent the substrate accumulation in the presence of test compound for either OATP1B1, OATP1B3, or OATP2B1 cells; [OATP]ni represents the substrate accumulation in the absence of test compound for either OATP1B1, OATP1B3, or OATP2B1 cells, respectively; and [WT]ni represents the substrate accumulation in the absence of test compound for wild type cells or Mock cells, respectively. IC50 Determination in Transporter Assays\n(§2) IC50 was determined according to the procedures described in Example 5. […] Results are reported as NIO (no interaction observed)."}, "[1]": {"system": "cryopreserved hepatocytes", "experiment": "Metabolites of [14C]BIC in cryopreserved hepatocytes, rat", "type": "in vitro ADME", "settings": "Wister-Han Rat hepatocytes, 4 hours, [14C]BIC 20 μM", "from_the_text": "Metabolic pathways included hydroxylation (3 variants), N-dealkylation, and direct glucuronidation. All human metabolites were also observed in nonclinical species. Using the hepatocyte system where the full range of hepatic metabolic enzymes are represented, it appeared that the metabolism of BIC was extensive in monkey and dog but lower in rat and human."}, "[2]": {"experiment": "In vivo BIC metabolism, plasma profile after oral [14C]BIC, mouse", "settings": "transgenic mice, 0 to 48 hours post dose, ND = not detected", "from_the_text": "Metabolic pathways included hydroxylation, oxidative defluorination, direct glucuronidation, and oxidation followed by phase II conjugation. In the monkey, BIC was metabolized through the oxidative pathways to a greater extent compared to rat and human."}, "OATP1B3": {"target": "T2, OATP1B3 (Homo sapiens, UniProt Q9NPD5)", "T2 sequence (Q9NPD5 1-702)": "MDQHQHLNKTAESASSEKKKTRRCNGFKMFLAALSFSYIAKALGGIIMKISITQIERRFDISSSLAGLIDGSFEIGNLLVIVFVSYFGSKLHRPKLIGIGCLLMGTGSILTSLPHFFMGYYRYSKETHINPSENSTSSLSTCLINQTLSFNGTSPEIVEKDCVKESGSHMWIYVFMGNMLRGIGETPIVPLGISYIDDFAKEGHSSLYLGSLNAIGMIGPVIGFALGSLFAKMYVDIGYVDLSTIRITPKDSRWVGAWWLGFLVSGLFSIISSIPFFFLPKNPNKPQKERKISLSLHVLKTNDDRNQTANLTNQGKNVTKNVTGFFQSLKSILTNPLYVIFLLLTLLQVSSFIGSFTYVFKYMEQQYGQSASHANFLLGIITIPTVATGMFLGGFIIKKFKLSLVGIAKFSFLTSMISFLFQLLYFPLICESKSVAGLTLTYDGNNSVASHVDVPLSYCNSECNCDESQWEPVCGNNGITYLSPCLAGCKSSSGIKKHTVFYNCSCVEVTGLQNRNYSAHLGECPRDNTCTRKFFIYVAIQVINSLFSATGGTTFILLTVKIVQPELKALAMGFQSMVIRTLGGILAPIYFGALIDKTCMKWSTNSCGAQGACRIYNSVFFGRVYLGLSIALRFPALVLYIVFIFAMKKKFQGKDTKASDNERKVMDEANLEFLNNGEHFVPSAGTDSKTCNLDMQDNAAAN", "experiment": "OATP1B3 inhibition assay using 3H-E217βG as probe substrate, HEK293FT cells", "type": "cell-based", "design": "expressed in transfected cells", "protocol": "HEK293FT-Mock and OATP-transfected cells (1×10^5 cells each) were seeded 24 hr prior to assay. Pre-rinsed ells were incubated for 3 minutes with 1 μM ^3H-E217βG in HK buffer in the presence of various concentrations of test compound or positive control rifampicin. After the experiment cells were rinsed with Krebs-Henseleit buffer and lysed with 0.1 M NaOH. The amount of substrate inside the cells was determined by liquid scintillation reader.\nas §1, §2"}, "[3]": {"experiment": "Stability of synthetic M15 observed during purification", "type": "physicochemical", "protocol": "Anomeric bromination of 1 with 33% HBr in acetic acid gave bromide 2 in 70% crystallized yield. Treatment of phenol 3 with bromide 2 in the presence of Ag2CO3 in acetonitrile at 60° C. produced compound 4 in 75% yield after reverse phase chromatography. Deprotection of 4 with triethylamine in methanol/water gave clean conversion to glucuronic acid 5 (M15). The reaction was stopped at 90% conversion since the amount of 3 present in the reaction started to increase. The mixture was purified by reverse phase chromatography with 0.1% TFA in the chromatography solvent. The free acid was isolated after lyophilization, however it contained a significant amount of 3. […] Another batch was purified using the same method as before but the TFA was neutralized with triethylamine before lyophilization. The compound was stable to the conditions but contained a large amount of triethylammonium trifluoroacetate. Not all salt was removed. The material was purified by reverse phase chromatography but without TFA in the solvent. After lyophilization the triethylamine salt of M15 (5) was isolated in high purity and 24% overall yield."}, "[4]": {"experiment": "Precipitation of test compound in transporter assay buffer", "type": "physicochemical", "settings": "300 μM, MRP2 assay buffer"}}, "data": [{"smiles": "O=C(NCc1c(F)cc(F)cc1F)c1cn2c(c(O)c1=O)C(=O)N1[C@H]3CC[C@H](C3)O[C@@H]1C2", "note": "[BIC, bictegravir, reference compound]", "values": [{"measurement": "IC50 (μM)", "setting": "OATP2B1; NIO = no interaction observed", "value": "NIO"}, {"measurement": "Fraction of Radiochromatogram (%)", "setting": "[1]", "value": 91.5, "unit": "%"}, {"measurement": "% of Total Radioactivity in AUC Pooled Plasma", "setting": "[2]", "value": 95.5, "unit": "%"}, {"measurement": "IC50 (μM)", "setting": "OATP1B3; NIO = no interaction observed", "value": "NIO"}]}, {"smiles": "O=C(NCc1c(F)cc(F)cc1F)c1cn2c(c(O[C@@H]3O[C@H](C(=O)O)[C@@H](O)[C@H](O)[C@H]3O)c1=O)C(=O)N1[C@H]3CC[C@H](C3)O[C@@H]1C2", "note": "[Metabolite M15]", "values": [{"measurement": "Stability of the free acid", "setting": "[3]; free acid, neutral or acidic conditions", "value": "unstable in either neutral or acidic conditions"}, {"measurement": "Stability of the triethylamine salt", "setting": "[3]; triethylamine salt", "value": "appeared to be stable"}]}, {"smiles": "O=C(NCc1c(F)cc(F)c(OS(=O)(=O)O)c1F)c1cn2c(c(O)c1=O)C(=O)N1C(C2)O[C@@H]2CC[C@H]1C2", "note": "(some centres unmarked) [Metabolite M20]", "values": [{"measurement": "IC50", "setting": "OATP2B1; NIO = no interaction observed", "value": "> 100", "unit": "µM"}, {"measurement": "inhibition at 2 min, 100 µM", "setting": "OATP2B1; human, MDCKII cells transfected with OATP2B1, probe 3H-E3S (0.2 μM), at 100 μM, read-out: Maximum inhibition at highest test conc. (% of control)", "value": 26, "unit": "%"}, {"measurement": "Precipitation in assay buffer", "setting": "[4]", "value": "Precipitation was observed"}, {"measurement": "IC50", "setting": "OATP1B3; NIO = no interaction observed", "value": "> 100", "unit": "µM"}, {"measurement": "inhibition at 3 min, 100 µM", "setting": "OATP1B3; human, HEK293FT cells transfected with OATP1B3, probe 3H-E217βG (1 μM), at 100 μM, read-out: Maximum inhibition at highest test conc. (% of control)", "value": 49, "unit": "%"}]}]}
